Data on 9 molecules can be found in patent US4670461A, “Formaldehyde derivatives of mitindomide” (priority 1984, dated 1987).

Data set [1] relates to P388. In words: IP P388, Days 1-9 (NCI murine test system). Type of data set: in vivo. The note with it: IP P388, Days 1-9, dose 400. On the procedure:
Anti-tumor or anti-neoplastic activity of the novel derivatives of the present invention is determined by using the murine test system for screening anti-cancer compounds as standardized by the National Cancer Institute, Bethesda, Md., U.S.A., and described in Cancer Chemotherapy Reports, 3 (2) 1-103 (1972) which publication is incorporated herein by reference.
It is noted that although the intraperitoneal mode of administration of the novel derivatives is preferred, other modes of parenteral administration, e.g. subcutaneous, intravenous, etc., are, of course, possible and included within the purview of this invention. Similarly, although water has been used as a vehicle for the administration of the compounds of the present invention, other pharmaceutically acceptable vehicles, e.g. saline, buffers, and other aqueous media may also be used for the administration of these compounds together with adjuvants, agents or additives commonly employed in the preparation of pharmaceutical compositions. Examples of such agents, additives and adjuvants that may be employed are listed in Instruction 14, Screening Data Summary Interpretation and Outline of Clinical Screen. Drug Evaluation Branch, NCI. and are incorporated herein by reference.

A short description of data set [2]: Water solubility. The format is physicochemical. The note with it: for solubility: read-out: H2O Sol. % (g per 100 ml H2O).
The test system of data set [3] is L1210 leukemia. In words: S.C. implanted L1210 leukemia in mice (CD2F1). The format is in vivo.
Description: ^a Experimental formulation of mitindomide was used (NaOH + manitol).
Data set [4] has as its system L1210 leukemia. In words: IP implanted L1210 leukemia in mice (CD2F1). The format is in vivo.
Setting [5] is: 21.6 mg/kg ip days 1-9, Expt. 1.
Where [6] appears, read: 21.6 mg/kg ip days 1-9, Expt. 2.
The mark [7] stands for this setting: 36.0 mg/kg ip days 1-9, Expt. 1.
The mark [8] stands for this setting: 36.0 mg/kg ip days 1-9, Expt. 2.
Setting [9] is: 60.0 mg/kg ip days 1-9, Expt. 1.
Where [10] appears, read: 60.0 mg/kg ip days 1-9, Expt. 2.
[11] abbreviates: 100.0 mg/kg ip days 1-9, Expt. 1.
Setting [12] is: 100.0 mg/kg ip days 1-9, Expt. 2.
Setting [13] is: 166.7 mg/kg ip days 1-9, Expt. 2.
Setting [14] is: 21.6 mg/kg IP days 1-9, Expt. 1.
The mark [15] stands for this setting: 21.6 mg/kg IP days 1-9, Expt. 2.
[16] abbreviates: 21.6 mg/kg IP days 1-9, Expt. 3.
Where [17] appears, read: 166.7 mg/kg IP days 1-9, Expt. 1.
Where [18] appears, read: 166.7 mg/kg IP days 1-9, Expt. 3.

≈ marks a conversion by molar mass, not a printed value.

Turning to `CC(=O)OCN1C(=O)C2C3C=CC(C2C1=O)C1C2C(=O)N(COC(C)=O)C(=O)C2C31` (centres unmarked) [Example 8, 4,8-Ethenopyrrolo3',4':3,4cyclobut[1,2-f]isoindole-1,3,5,7(2H,6H)-tetrone,3a,3b,4,4a,7a,8a,8b-octahydro-2,6-bis(acetyloxymethyl)], in data set [1], the T/C amounted to 208 and the “fraction printed in brackets behind T/C (not explained)” value is recorded as 1/5. Moreover, the solubility in data set [2] (water) stood at 1000 µg/mL (≈ 2.4 mM).

As to `NCC(=O)OCN1C(=O)C2C3C=CC(C2C1=O)C1C2C(=O)N(COC(=O)CN)C(=O)C2C31` (centres unmarked) [Example 9, 4,8-Ethenopyrrolo[3',4':3,4]cyclobut[1,2-f]isoindole-1,3,5,7(2H,6H)-tetrone,3a,3b,4,4a,7a,8,8a,8b-octahydro-2-,6bis(2-aminoacetyloxymethyl)], the solubility in data set [2] (water) was determined as 20000 µg/mL (≈ 44.8 mM).

Regarding `O=C1C2C3C=CC(C2C(=O)N1CN1CCOCC1)C1C2C(=O)N(CN4CCOCC4)C(=O)C2C31` (centres unmarked) [Example 5, 4,8-Ethenopyrro[3',4':3,4]cyclobut[1,2-f]isoindole-1,3,5,7(2H,6H)-tetrone,3a,3b,4,4a,7a,8,8a,8b-octahydro-2,6-bis(morpholinomethyl)], in data set [2] (water), the solubility was 1000 µg/mL (≈ 2.13 mM).

`CC(=O)OC(C(=O)O)N1C(=O)C2C3C=CC(C2C1=O)C1C2C(=O)N(C(OC(C)=O)C(=O)O)C(=O)C2C31` (centres unmarked) [Example 11]: the solubility in water entry in data set [2] (freeze-dried solid after pH adjusted to 6.11 with sodium bicarbonate) is “soluble in water”. Also, the solubility in data set [2] (water) was found to be 50000 µg/mL (≈ 99.1 mM).

With `CCN(CC)CN1C(=O)C2C3C=CC(C2C1=O)C1C2C(=O)N(CN(CC)CC)C(=O)C2C31` (centres unmarked) [Example 7, 4,8-Ethenopyrrolo[3',4':3,4]cyclobut[1,2-f]isoindole-1,3,5,7(2H,6H)-tetrone,3a,3b,4,4a,7a,8,8a,8b-octahydro-2,6-bis(N,N-diethylaminomethyl)], in data set [2] (water), the solubility came out at 1000 µg/mL (≈ 2.26 mM).

In the case of `O=C(O)CCC(=O)OCN1C(=O)C2C3C=CC(C2C1=O)C1C2C(=O)N(COC(=O)CCC(=O)O)C(=O)C2C31` (centres unmarked) [Example 10, 4,8-Ethenopyrrolo[3',4':3,4]cyclobut[1,2-f]isoindole-1,3,5,7(2H,6H)-tetrone,3a,3b,4,4a,7a,8,8a,8b-octahydro-2-,6-bis(succinyloxymethyl)], the solubility in water result in data set [2] (freeze-dried powder after pH adjusted to 6.33 with sodium bicarbonate) is on record as “readily soluble in water”; in data set [2] (title compound, 2.4 g mixed with 150 ml of water), “not soluble”. The solubility in data set [2] (water) is 20000 µg/mL (≈ 37.6 mM).

Usually ILS stands for the gain in survival time of treated over control animals, in per cent. A low value points to a small benefit in survival. Turning to `CN1CCN(CN2C(=O)C3C4C=CC(C3C2=O)C2C3C(=O)N(CN5CCN(C)CC5)C(=O)C3C42)CC1` (centres unmarked) [Example 3, 4,8-Ethenopyrrolo[3'4':3,4]cyclobut[1,2-f]isoindole-1,3,5,7(2H,6H)-tetrone,3a,3b,4,4a,7a,8,8a,8b-octahydro-2,6-bis(N-methylpiperazinomethyl)], the ILS in data set [3] (setting [5]) is given as 6%; in data set [3] (setting [6]) it was 10%; in data set [3] (setting [7]), 13%; in data set [3] (setting [8]) it was 5%; in data set [3] (setting [9]), 70%; in data set [3] (setting [10]), 14%. Also, the increase in life span (ILS) in data set [3] (setting [11]) came to 143%; in data set [3] (setting [12]), 72%; in data set [3] (setting [13]) it was 133%; in data set [4] (setting [14]) it was 4%; in data set [4] (setting [15]) it was 3%; in data set [4] (setting [16]), 9%. Also, the ILS came to 5% in data set [4] (36 mg/kg IP days 1-9, Expt. 1); 12% in data set [4] (36 mg/kg IP days 1-9, Expt. 2); 9% in data set [4] (36 mg/kg IP days 1-9, Expt. 3); 37% in data set [4] (60 mg/kg IP days 1-9, Expt. 1); 75% in data set [4] (60 mg/kg IP days 1-9, Expt. 2); 46% in data set [4] (60 mg/kg IP days 1-9, Expt. 3). The increase in life span (ILS) in data set [4] (100 mg/kg IP days 1-9, Expt. 1) is 37%; in data set [4] (100 mg/kg IP days 1-9, Expt. 2), 141%; in data set [4] (100 mg/kg IP days 1-9, Expt. 3), 95%; in data set [4] (setting [18]), 156%. Besides, the MST in data set [3] (setting [5]) was found to be 8.7 days; in data set [3] (setting [6]), 11.8 days; in data set [3] (setting [7]), 9.3 days; in data set [3] (setting [8]) it was 11.3 days; in data set [3] (setting [9]), 14.0 days; in data set [3] (setting [10]) it was 12.3 days. Moreover, the MST turned out to be 20.0 days in data set [3] (setting [11]); 18.5 days in data set [3] (setting [12]); 25.0 days in data set [3] (setting [13]); 9.1 days in data set [4] (setting [14]); 8.3 days in data set [4] (setting [15]); 9.0 days in data set [4] (setting [16]). Besides, the MST in data set [4] (36 mg/kg IP days 1-9, Expt. 1) is 9.2 days; in data set [4] (36 mg/kg IP days 1-9, Expt. 2), 9.0 days; in data set [4] (36 mg/kg IP days 1-9, Expt. 3), 9.0 days; in data set [4] (60 mg/kg IP days 1-9, Expt. 1), 12.0 days; in data set [4] (60 mg/kg IP days 1-9, Expt. 2), 14.0 days; in data set [4] (60 mg/kg IP days 1-9, Expt. 3) it was 12.0 days. In addition, the MST in data set [4] (100 mg/kg IP days 1-9, Expt. 1) worked out at 12.0 days; in data set [4] (100 mg/kg IP days 1-9, Expt. 2) it was 19.3 days; in data set [4] (100 mg/kg IP days 1-9, Expt. 3), 16.0 days; in data set [4] (setting [17]), 6.3 days; in data set [4] (setting [18]) it was 21.0 days. Moreover, the “Wt. Change” value in data set [3] (setting [5]) is -0.3 g; in data set [3] (setting [6]) it was 0.2 g; in data set [3] (setting [7]) it was -1.0 g; in data set [3] (setting [8]), -0.4 g; in data set [3] (setting [9]), -4.2 g; in data set [3] (setting [10]) it was -0.7 g. In addition, the “Wt. Change” value in data set [3] (setting [11]) was -5.3 g; in data set [3] (setting [12]), -3.1 g; in data set [3] (setting [13]), -4.9 g; in data set [4] (setting [14]) it was 1.9 g; in data set [4] (setting [15]), 0.7 g; in data set [4] (setting [16]), 0.2 g. For the same molecule, the “Wt. Change” value in data set [4] (36 mg/kg IP days 1-9, Expt. 1) was 1.7 g; in data set [4] (36 mg/kg IP days 1-9, Expt. 2) it was -0.5 g; in data set [4] (36 mg/kg IP days 1-9, Expt. 3) it was 0.2 g; in data set [4] (60 mg/kg IP days 1-9, Expt. 1) it was -0.4 g; in data set [4] (60 mg/kg IP days 1-9, Expt. 2) it was -4.4 g; in data set [4] (60 mg/kg IP days 1-9, Expt. 3), -1.3 g. Also, the “Wt. Change” value was -2.9 g in data set [4] (100 mg/kg IP days 1-9, Expt. 1); -4.8 g in data set [4] (100 mg/kg IP days 1-9, Expt. 2); -3.1 g in data set [4] (100 mg/kg IP days 1-9, Expt. 3); -5.2 g in data set [4] (setting [17]); -5.2 g in data set [4] (setting [18]). Moreover, the “solubility of dosed preparation” value in data set [4] (Table 4 Expt. 1, vehicle water, 60 mg/kg and higher) is listed as “insoluble”. The “H2O Sol. % (g per 100 ml H2O)” value in data set [2] (water) is listed as 1.5 % (g per 100 ml H2O).

Regarding `O=C1C2C3C=CC(C2C(=O)N1CN1CCSCC1)C1C2C(=O)N(CN4CCSCC4)C(=O)C2C31` (centres unmarked) [Example 6, 4,8-Ethenopyrrolo[3'4':3,4]cyclobut[1,2-f]isoindole-1,3,5,7(2H,6H)-tetrone,3a,3b,4,4a,7a,8,8a,8-octahydro-2,6-bis(thiomorpholinomethyl)], in data set [2] (water), the solubility was determined as 1000 µg/mL (≈ 1.99 mM).

With `O=C1C2C3C=CC(C2C(=O)N1CO)C1C2C(=O)N(CO)C(=O)C2C31` (centres unmarked) [Example 2, 4,8-Ethenopyrrolo[3',4':3,4]cyclobut[1,2-f]isoindole-1,3,5,7(2H,6H)-tetrone,3a,3b,4,4a,7a,8,8a,8b-octahydro-2-,6-bis(hydroxymethyl)-], in data set [2] (water), the solubility is 8000 µg/mL (≈ 24.1 mM).
